Data published in patent publication US20210137961A1, “Compositions and Methods for Treating Dry Eye Diseases” (priority 2017, published 2021).
Values after ≈ are worked out from the molar mass of the structure shown. Values belong to the compound of their own block, whether it stands above or below them.

Tests used:
[1] = system: TNFα; experiment: LPS-induced TNFα production in PMA-differentiated U937 cells (ELISA); format: cell-based, human; conditions: for inhibition of TNFα production (in words): solithromycin and telithromycin at 100 μM, clarithromycin at 333 μM
Procedure: (§1) EXAMPLE. […] Cells. The human monocytic cell line U937 was obtained from the American Type Culture Collection (ATCC, Rockville, Md.). PBMCs from COPD patients were obtained from Brompton hospital and separated by AccuSPIN (Sigma-Aldrich). […] U937 cells were differentiated into adherent macrophage-like morphology by exposure to PMA (50 ng/ml) for 48 h in complete growth medium. Cell viability was assessed microscopically by trypan blue staining. Cell toxicity was determined by MTT assay as needed. This study was approved by the ethics committee of the Royal Brompton Hospitals, and all subjects gave written informed consent. Cytokine ELISA. TNFα and IL-8 concentrations in the supernatant of cell cultures were determined by sandwich ELISA according to the manufacturer's instructions (R&D Systems Europe, Abingdon, UK). Statistical analysis. The results were expressed as the mean±SEM. Comparisons of data in two groups were performed using the Student's t test or the Wilcoxon signed rank test. Multiple comparisons were made by one-way ANOVA with post hoc test (Dunnett's) as appropriate. The difference was considered significant at p<0.05. […] Anti-inflammatory effects of solithromycin in U937 cells.

[2] = system: CXCL8; experiment: LPS-induced CXCL8 (IL-8) production in PMA-differentiated U937 cells (ELISA); format: cell-based, human; conditions: for inhibition of CXCL8 (IL-8) production (in words): solithromycin and telithromycin at 100 μM, clarithromycin at 333 μM
Procedure: as §1

[3] = system: MMP9; experiment: MMP9 activity in PMA-stimulated U937 cells (gelatin zymography); format: cell-based, human; conditions: PMA stimulation
Procedure: EXAMPLE. […] Cells. The human monocytic cell line U937 was obtained from the American Type Culture Collection (ATCC, Rockville, Md.). PBMCs from COPD patients were obtained from Brompton hospital and separated by AccuSPIN (Sigma-Aldrich). […] U937 cells were differentiated into adherent macrophage-like morphology by exposure to PMA (50 ng/ml) for 48 h in complete growth medium. Cell viability was assessed microscopically by trypan blue staining. Cell toxicity was determined by MTT assay as needed. This study was approved by the ethics committee of the Royal Brompton Hospitals, and all subjects gave written informed consent. Zymography. MMP9 enzyme activity was measured by gelatin zymography. […] After electrophoresis, gels were incubated and rinsed with Novex® zymogram renaturing buffer (Invitrogen) for 30 min at room temperature. The gels were then rinsed in Novex® zymogram developing buffer (Invitrogen) for 30 min at room temperature prior to overnight incubation in the developing buffer at 37° C. After incubation, the gels were stained using a Colloidal Blue Staining Kit (Invitrogen) to visualize the zymogen bands. Statistical analysis. The results were expressed as the mean±SEM. Comparisons of data in two groups were performed using the Student's t test or the Wilcoxon signed rank test. Multiple comparisons were made by one-way ANOVA with post hoc test (Dunnett's) as appropriate. The difference was considered significant at p<0.05.

[4] = system: Immortalized human meibomian gland epithelial cells (HMGECs); experiment: HMGEC lysosome and neutral lipid accumulation, differentiation and proliferation; format: cell-based; conditions: meibomian gland epithelial cells
Procedure: EXAMPLE. Immortalized human meibomian gland epithelial cells (HMGECs) are cultured in the presence of vehicle or test compound, such as Soli (2, 10, or 20 μg/ml) for 1 to 7 days under proliferating (keratinocyte serum-free medium; KSFM) or differentiating (DMEM/F12 plus 10% fetal bovine serum) conditions. A positive control (epidermal growth factor and bovine pituitary extract for proliferation; Azi for differentiation) and a negative control (media only) are included with the experiments. Additional details are described in JAMA Ophthalmol 132(2): 226-228 (Feb. 1, 2014) and Current Eye Research, 1-6 (2017), each of which is incorporated herein by reference.
HMGECs are evaluated for cell number, neutral lipid content (LipidTox) and lysosome accumulation (LysoTracker). […] Strong lysosomal effects are observed with the 10 μg/ml dose of Soli (relative stimulation=30), on the first day of dosing, and those effects are statistically different (p<0.01) from the control group (relative stimulation=13). In contrast, the 10 μg/m1Azi dose is not statistically different from the control group (relative stimulation=18) until day 3. […] Compounds described herein, such a Soli, affect lysosome and lipid accumulation and differentiation of HMGECs. The effect of Soli on lysosome appearance is faster than that of Azi.

[5] = system: phospholipase; experiment: Phospholipase inhibition in other cell lines; format: cell-based; conditions: for IC50: read-out: IC50 for phospholipase inhibition, other cell lines
[6] = system: P. acnes; experiment: MIC against P. acnes; format: cell-based; conditions: for MIC50 / MIC90: Cutibacterium acnes
[7] = system: Haemophilus parainfluenzae; experiment: MIC against Haemophilus parainfluenzae; format: cell-based; conditions: N 11
[8] = system: Mycoplasma hominis; experiment: MIC against Mycoplasma hominis; format: cell-based; conditions: N 13

Compound: CC[C@H]1OC(=O)[C@H](C)[C@@H](O[C@H]2C[C@@](C)(OC)[C@@H](O)[C@H](C)O2)[C@H](C)[C@@H](O[C@@H]2O[C@H](C)C[C@H](N(C)C)[C@H]2O)[C@](C)(O)C[C@@H](C)C(=O)[C@H](C)[C@@H](O)[C@]1(C)O [Erythromycin]
- inhibition of TNFα production (in words) [1]: did not inhibit
- inhibition of CXCL8 (IL-8) production (in words) [2]: did not inhibit
- effect on MMP9 activity (in words) [3]: no effect
- meibomian gland differentiation (in words) [4]: do not cause clinically significant meibomian gland differentiation
- IC50 [5]: > 400 µM

Compound: CC[C@H]1OC(=O)[C@H](C)C(=O)[C@H](C)[C@@H](O[C@@H]2O[C@H](C)C[C@H](N(C)C)[C@H]2O)[C@](C)(OC)C[C@@H](C)C(=O)[C@H](C)[C@H]2N(CCCCn3cnc(-c4cccnc4)c3)C(=O)O[C@]12C [Telithromycin]
- inhibition of TNFα production (in words) [1]: did not inhibit
- inhibition of CXCL8 (IL-8) production (in words) [2]: did not inhibit
- meibomian gland differentiation (in words) [4]: do not cause clinically significant meibomian gland differentiation

Compound: CCCCCCCCCC(=O)N[C@@H](Cc1c[nH]c2ccccc12)C(=O)N[C@H](CC(N)=O)C(=O)N[C@@H](CC(=O)O)C(=O)N[C@@H]1C(=O)NCC(=O)N[C@@H](CCCN)C(=O)N[C@@H](CC(=O)O)C(=O)N[C@H](C)C(=O)N[C@@H](CC(=O)O)C(=O)NCC(=O)N[C@H](CO)C(=O)N[C@@H]([C@H](C)CC(=O)O)C(=O)N[C@@H](CC(=O)c2ccccc2N)C(=O)O[C@@H]1C [Daptomycin]
- MIC50 ([6]; P. acnes): 2 µg/mL (≈ 1.23 µM)
- MIC90 ([6]; P. acnes (51 species)): 4 µg/mL (≈ 2.47 µM)
- MIC Range ([6]; P. acnes (51 species)): 0.5 to 8 µg/mL

Compound: Penicillin
- MIC 50% ([6]; P. acnes): ≤0.03 µg/mL
- MIC 90% ([6]; P. acnes (51 species)): 0.06 µg/mL
- MIC Range ([6]; P. acnes (51 species)): ≤0.03-1^ μg/ml

Compound: CC[C@H]1OC(=O)[C@H](C)[C@@H](O[C@H]2C[C@@](C)(OC)[C@@H](O)[C@H](C)O2)[C@H](C)[C@@H](O[C@@H]2O[C@H](C)C[C@H](N(C)C)[C@H]2O)[C@](C)(O)C[C@@H](C)CN(C)[C@H](C)[C@@H](O)[C@]1(C)O [Azithromycin, azithromycin]
- inhibition of TNFα production (in words) [1]: did not inhibit
- inhibition of CXCL8 (IL-8) production (in words) [2]: did not inhibit
- MIC Range [7]: 0.5-2^ μg/mL
- inhibitory effects on MMP9 activity, lower than solithromycin [3]: 10 fold
- reversibility of phospholipase inhibition ([5]; after dosing is stopped): remains unchanged for several days after dosing is stopped
- IC50 [5]: 300 µM
- MIC Range [8]: 0.5-4^ μg/mL

Compound: CC[C@H]1OC(=O)[C@H](C)C(=O)[C@H](C)[C@@H](O[C@@H]2O[C@H](C)C[C@H](N(C)C)[C@H]2O)[C@](C)(OC/C=C/c2cnc3ccccc3c2)C[C@@H](C)C(=O)[C@H](C)[C@H]2NC(=O)O[C@@]21C [cethromycin]
- meibomian gland differentiation (in words) [4]: do not cause clinically significant meibomian gland differentiation

- IC50 ([1]; Homo sapiens, U-937, LPS, PMA-differentiated U937 cells, read-out: IC50 on TNFα release): 426 ± 63.9 µM
- IC50 ([2]; Homo sapiens, U-937, LPS, PMA-differentiated U937 cells, read-out: IC50 on CXCL8 release): 506 ± 44 µM
Compound: CC[C@H]1OC(=O)[C@H](C)[C@@H](O[C@H]2C[C@@](C)(OC)[C@@H](O)[C@H](C)O2)[C@H](C)[C@@H](O[C@@H]2O[C@H](C)C[C@H](N(C)C)[C@H]2O)[C@](C)(OC)C[C@@H](C)C(=O)[C@H](C)[C@@H](O)[C@]1(C)O [Clarithromycin, clarithromycin]
- inhibition of TNFα production (in words) [1]: modest effects
- inhibition of CXCL8 (IL-8) production (in words) [2]: modest effects
- inhibitory effects on MMP9 activity, lower than solithromycin [3]: 10 fold
- meibomian gland differentiation (in words) [4]: do not cause clinically significant meibomian gland differentiation

Compound: CN[C@H](CC(C)C)C(=O)N[C@H]1C(=O)N[C@@H](CC(N)=O)C(=O)N[C@H]2C(=O)N[C@H]3C(=O)N[C@H](C(=O)N[C@H](C(=O)O)c4cc(O)cc(O)c4-c4cc3ccc4O)[C@H](O)c3ccc(c(Cl)c3)Oc3cc2cc(c3O[C@@H]2O[C@H](CO)[C@@H](O)[C@H](O)[C@H]2O[C@H]2C[C@](C)(N)[C@H](O)[C@H](C)O2)Oc2ccc(cc2Cl)[C@H]1O [Vancomycin]
- MIC50 ([6]; P. acnes): 1 µg/mL (≈ 0.69 µM)
- MIC90 ([6]; P. acnes (51 species)): 1 µg/mL (≈ 0.69 µM)
- MIC Range ([6]; P. acnes (51 species)): 0.12 to 1 µg/mL
